# Experimental data reported in patent publication US12349708B2, “Use and methods of 1,3-propanediol to improve taste and/or off-taste qualities” (Primient Covation LLC, priority 2019, dated 2025).
# “Also recorded” adds a separate entry of the source.
# Legend:
# [1] = Comparison of energy shot prototypes with and without caffeine and bioPDO (Example 7); format: in vivo, human; settings: samples without caffeine
# Protocol: • 1. Take 1st sip from a full 30 mL medicine cup, taste and swallow the 1st sample, wait 10 seconds, then take a 2nd sip and lock it into memory. Wait for 10 seconds. • 2. Proceed with 2nd sample. Taste 1st sip of the 2nd sample, wait for 10 seconds, and then use the 2nd sip to compare to the 2nd sip of the 1st sample. • 3. Rinse with DW and wait for approximately 15 seconds. Repeat step 2 for each if extra sampling needed, not to exceed four samples at a time.
# Each paired sample evaluation was repeated in duplicate with at least a 10-minute break and a carbon-treated water rinse.
# The following samples were prepared for this study: • 1. Existing Sample #3A (Energy shot prototype) without bioPDO. • 2. Existing Sample #3B (Energy shot prototype) with bioPDO. • 3. New Sample #4A with similar levels of sucralose and malic acid as Sample #3A, BUT without bioPDO and caffeine as an experimental sample. • 4. New Sample #4B with similar levels of sucralose, malic acid and bioPDO as Sample #3B, BUT without caffeine as an experimental sample. Results
# This study was designed so it would be possible to directly identify any other ‘off-taste’ attribute. […] Below are the comparative sensorial evaluation results in Table 42 including their specific sample formulations, observations and results. Keywords of SUL, MA and CAF are sucralose, malic acid and caffeine, respectively.
# [2] = system: descriptive panel of 8 panelists; experiment: Descriptive analysis of 5HE, BANG and energy shot prototype drinks with and without bioPDO (Example 6); format: in vivo, human; settings: addition of bioPDO (0.1%)
# Protocol: A formal sensory testing called descriptive analysis (DA) was performed by 8 trained panelists in triplicate (n=24) on energy shot prototype, BANG prototype samples, and 5HE SHOT prototype samples with & without bioPDO. All samples were served to panelists at ambient temperature 20±2° C.
# A qualified descriptive panel of 8 panelists, experienced in the sensory analysis of a range of products, was used for this research.
# The protocol for descriptive analysis was divided into two distinct phases. 1) During the panel orientation phase, panelists tasted the samples and formulated a lexicon of descriptive taste, mouthfeel, aftertaste and after feel attributes to describe them. A final list of 3 taste, 3 mouthfeel, 3 aftertaste and 1 after feel attributes were determined (Table 37). During the sample testing phase, which took place over 2 separate days, the products were evaluated in triplicate (total evaluations n=24). […]
# Following consumption of the 1st sip, panelists assessed the attribute ‘initial harshness mouthfeel’. The remaining attributes (including ‘harshness mouthfeel’) were then measured by panelists on the 2nd sip. Aftertaste/feel attributes were measured 30 seconds after ingestion of the 2nd sip. […]
# The sensory attributes of the products were scored on unstructured 10 cm line scales labeled at both ends with extremes of each descriptive term. […]
# [3] = Taste of juices and yogurts with 1,3-propanediol; format: in vivo
# [4] = system: experienced and trained panelist; experiment: Sensorial description of energy drinks and additive solutions with propylene glycol or biologically-produced 1,3-propanediol (multi-sip-and-swallow taste method); settings: for Sensorial Description: RT; for increase of sweetness equivalent: with prior DW sipping; for concentration yielding the most consistent reduction in unpleasant taste/masking off-tastes: in vivo; for taste quality of 5-hour ENERGY shots and Bang energy drink: included in 5-hour ENERGY shots and Bang energy drink; for overall tasting quality vs propylene glycol: three additive solutions; for tasting qualities vs propylene glycol: two additive malic acid and sucralose solutions;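 on all read-outs here: propylene glycol or 1,3-propanediol added at 0.01, 0.1 or 1.0%, tasted by multi-sip-and-swallow in duplicate, compared with matching controls lacking either additive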
# [5] = PG samples tasted before PDO samples
compound,measurement,setting,value
"OCCCO [PDO, 1,3-propanediol]",modulation of sweet and sour intensities,[1],does not positively or negatively modulate the sweet and sour intensities
same,overall taste quality of energy shots/drink,[2],significantly improves overall taste quality
same,taste modulation,"[3]; Greek yogurt, with vs without",less bitter and sweeter
same,taste modulation,"[3]; Vanilla yogurt, with vs without",less bitter and somewhat sweeter
same,taste modulation,[3]; cranberry juice,reduced both the bitterness and the sweetness
same,taste modulation,[3]; grapefruit juice,decrease the bitterness and increase the sweetness
same,taste modulation,"[3]; orange juice, with vs without",less bitter and somewhat sweeter
same,Sensorial Description,[4]; 0.01% PG or PDO in 79 ppm sucralose (5% SE) in distilled water,Same as 0.01% PG results.
same,Sensorial Description,"[4]; 0.01% PG or PDO in 2,000 ppm sucralose in distilled water",(small sip): Similar results as 0.01% PG. Direct
same,Sensorial Description,"[4]; 0.01% PG or PDO in 3,338 ppm caffeine in distilled water (caffeine shot)",(small sip): similar to Control #65.
same,Sensorial Description,"[4]; 0.01% PG or PDO in 10,500 ppm malic acid and 2,000 ppm sucralose in distilled water","Little to no sweetness and sourness, similar"
same,Sensorial Description,"[4]; 0.01% PG or PDO in 10,500 ppm malic acid, 2,000 ppm sucralose, 3,338 ppm caffeine in distilled water","Significantly less sweet intensity, less and different"
same,Sensorial Description,[4]; 0.01% PG or PDO in B vitamins at 5-hour Energy shot concentrations in distilled water,Slightly different from Control (upfront smooth-like)
same,Sensorial Description,[4]; 0.01% PG or PDO in Bang energy drink,"Still slow onset sourness, less sweetness (more"
same,Sensorial Description,[4]; 0.01% PG or PDO in Berry flavor in distilled water,"No dry taste effect, slight less flavor."
same,Sensorial Description,[4]; 0.01% PG or PDO in Monster Energy Zero Ultra,"Significantly less off-taste, still strong sweetness and"
same,Sensorial Description,[4]; 0.01% PG or PDO in Monster Energy drink,Note: Loss of carbonation. No carbonic acid off-
same,Sensorial Description,[4]; 0.01% PG or PDO in NOS High Performance Energy Drink,"Less Sweet, smoother, no off-taste, significant less"
same,Sensorial Description,[4]; 0.01% PG or PDO in Orange 5-hour ENERGY shot (5HE Orange),"Not significantly less flavor, tasted better than"
same,Sensorial Description,[4]; 0.01% PG or PDO in Red Bull Energy Drink,"Better taste overall and less off taste than 0.01% PG,"
same,Sensorial Description,[4]; 0.01% PG or PDO in Red Bull Sugar Free,"Much better overall tasting quality, significantly less"
same,Sensorial Description,[4]; 0.01% PG or PDO in Rockstar Original energy drink,"Slight off-flavor, significantly less sourness, still"
same,increase of sweetness equivalent,"[4]; 0.01% in 2,000 ppm sucralose",~45% more SE.
same,Sensorial Description,[4]; 0.1% PG or PDO in 238 ppm sucralose (10% SE) in distilled water,"Still slightly more sweetness, thinner but still ~9-"
same,Sensorial Description,[4]; 0.1% PG or PDO in 338 ppm caffeine in distilled water (caffeine drink),Stronger bitterness intensity to medium level.
same,Sensorial Description,"[4]; 0.1% PG or PDO in 2,000 ppm sucralose in distilled water",(small sip): Significantly improved sugar-like tasting
same,Sensorial Description,"[4]; 0.1% PG or PDO in 3,338 ppm caffeine in distilled water (caffeine shot)",(small sip): similar to Control #65.
same,Sensorial Description,[4]; 0.1% PG or PDO in Bang energy drink,"Significantly less sourness and sweetness, smoother,"
same,Sensorial Description,[4]; 0.1% PG or PDO in Berry 5-hour ENERGY shot (5HE Berry),"Significantly better tasting quality than 0.1% PG,"
same,Sensorial Description,[4]; 0.1% PG or PDO in Berry flavor in distilled water,"Less dry than 0.01% PDO, slight less flavor."
same,Sensorial Description,[4]; 0.1% PG or PDO in Monster Energy Zero Ultra,More suitable tasting quality (less than 1% but more
same,Sensorial Description,[4]; 0.1% PG or PDO in Monster Energy drink,"Note: Loss of carbonation. Similar to 0.01% PDO,"
same,Sensorial Description,[4]; 0.1% PG or PDO in Red Bull Energy Drink,Note: Significant loss of carbonation. Still slight-
same,Sensorial Description,[4]; 0.1% PG or PDO in Red Bull Sugar Free,"Flatter than 0.01% PDO, low-med flavor, low-med"
same,increase of sweetness equivalent,"[4]; 0.1% in 2,000 ppm sucralose",~45% more SE.
same,"taste effect at 1% (10,000 ppm)","[4]; 1% / 1.0% (10,000 ppm) in the compositions studied, listed as biologically-produced 1,3-propanediol",sometimes imparted a smoke and/or off-flavor; also recorded: yielded no further improvement in taste perception
same,Sensorial Description,[4]; 1.0% PG or PDO in 79 ppm sucralose (5% SE) in distilled water,"Significant off-flavor note, chemical-like note,"
same,Sensorial Description,[4]; 1.0% PG or PDO in 238 ppm sucralose (10% SE) in distilled water,"Off-flavor, thinner-like or chemical-like note,"
same,Sensorial Description,[4]; 1.0% PG or PDO in 338 ppm caffeine in distilled water (caffeine drink),"Off-flavor taste, delayed onset of bitterness."
same,Sensorial Description,"[4]; 1.0% PG or PDO in 2,000 ppm sucralose in distilled water",(small sip): off-flavor chemical-like note (plastic-
same,Sensorial Description,"[4]; 1.0% PG or PDO in 3,338 ppm caffeine in distilled water (caffeine shot)","(small sip): similar to Control #65, slightly"
same,Sensorial Description,"[4]; 1.0% PG or PDO in 10,500 ppm malic acid and 2,000 ppm sucralose in distilled water","Weak off-flavor across the taste, similar qualities"
same,Sensorial Description,"[4]; 1.0% PG or PDO in 10,500 ppm malic acid in distilled water","No off-flavor for sure, however possible Invisible-"
same,Sensorial Description,"[4]; 1.0% PG or PDO in 10,500 ppm malic acid in distilled water, listed as biologically-produced 1,3-propanediol",did not present any expected off-flavor
same,Sensorial Description,"[4]; 1.0% PG or PDO in 10,500 ppm malic acid, 2,000 ppm sucralose, 3,338 ppm caffeine in distilled water","Very weak off-flavor note, thinner sourness, less"
same,Sensorial Description,[4]; 1.0% PG or PDO in B vitamins at 5-hour Energy shot concentrations in distilled water,"Slight-medium off-flavor note,"
same,Sensorial Description,[4]; 1.0% PG or PDO in Bang energy drink,"Slight and low off-flavor at middle tasting time,"
same,Sensorial Description,[4]; 1.0% PG or PDO in Berry flavor in distilled water,Moderate chemical-like off-flavor at later
same,Sensorial Description,[4]; 1.0% PG or PDO in Monster Energy Zero Ultra,"Smoother, medium off flavor at middle tasting"
same,Sensorial Description,[4]; 1.0% PG or PDO in Monster Energy drink,Note: Little carbonation. Significant undescribed
same,Sensorial Description,[4]; 1.0% PG or PDO in NOS High Performance Energy Drink,"Off-flavor in middle taste, no or low sourness, not"
same,Sensorial Description,[4]; 1.0% PG or PDO in Orange 5-hour ENERGY shot (5HE Orange),Slight or faint off-flavor in background (non-
same,Sensorial Description,[4]; 1.0% PG or PDO in Red Bull Energy Drink,Note: significantly less or no carbonation. Significant
same,reduction in unpleasant taste or masking of off-taste,"[4]; 2,000 ppm, 238 ppm, or 70 ppm sucralose in distilled water","No reduction in unpleasant taste, or masking of off-taste"
same,reduction of unpleasant taste / masking of bitterness,"[4]; 3,382 ppm or 338 ppm caffeine in distilled water","did not reduce the unpleasant taste, or mask the bitterness"
same,maximum useful concentration,"[4]; across a broad range of food, beverage, and confection compositions",0.5%
same,taste modulation of B vitamins,[4]; aqueous B vitamins at concentrations comparable to 5-hour ENERGY shots,did not positively modulate
same,modulation of berry flavor,[4]; berry flavor in distilled water,"Neither biologically-produced 1,3-propanediol, nor propylene glycol modulated the flavor"
same,concentration yielding the most consistent reduction in unpleasant taste/masking off-tastes,[4]; listed as bioPDO,ca. 0.1%
same,concentration yielding the most consistent reduction in unpleasant taste/masking off-tastes,"[4]; listed as biologically-produced 1,3-propane diol",about 0.1%
same,taste quality of 5-hour ENERGY shots and Bang energy drink,"[4]; listed as Biologically-produced 1,3-propanediol",improved the taste quality
same,taste quality of 5-hour ENERGY shots and Bang energy drink,"[4]; listed as biologically-produced 1,3-propanediol",positive taste modulation effect of PDO
same,taste modulation or sour masking,"[4]; malic acid at 10,500 ppm in distilled water",no positive taste modulation or sour masking effect
same,taste modulation of three additive solution,"[4]; malic acid, sucralose and caffeine at 5-hour ENERGY concentrations in distilled water, compared to solution with propylene glycol","positive taste modulation, or a reduction of unpleasant tastes"
same,taste modulation of single additive solutions,"[4]; separate caffeine, malic acid, and sucralose solutions at mega-dose levels, listed as biologically-produced 1,3-propanediol","did not positively modulate the taste or mask the bitter, off, or sour tastes; also recorded: neither propylene glycol, nor biologically-produced 1,3-propanediol modulated the taste"
same,taste modulation of two additive solutions,[4]; solutions containing a blend of two taste additives,most positive taste modulation effect
same,overall tasting quality vs propylene glycol,"[4]; PDO samples tasted before PG samples, similar levels",better overall tasting quality
same,overall tasting quality vs propylene glycol,[4]; [5],no tasting quality differences
same,tasting qualities vs propylene glycol,[4]; [5],tasted marginally better than the propylene glycol-containing samples
same,tasting qualities vs propylene glycol,[4]; direct comparison of PDO to PG,better tasting qualities than those with propylene glycol
